Results on two molecules are retold here after patent US10188110B2 (TELEFLEX MEDICAL INCORPORATED, priority 2010, dated 2019).

SMILES strings stand for the structures. Counter-ions that a name gives are not always drawn. Like-named read-outs stand apart in the source and are kept apart here.

Assay [1] deals with Enterobacter aerogenes (E. aerogenes). The experiment in a line: Kirby-Bauer disk diffusion in HCl agar. In kind it is cell-based. Particulars: for E. aerogenes Avg. ZOI: 5-FU 256 ppm.
Protocol: (§1) Agar plates and cultures of S. aureus, P. aeruginosa, and Enterobacter aerogenes (E. aerogenes) were set up as described in EXPERIMENT 8. […] Cultures were diluted to 1×10^8 CFU/ml.
(§2) From each of the test solution, 20 μL was then dispensed over the Kirby Bauer diffusion disks. The disks were air dried for five minutes and using forceps applied over the agar plates. Plates were then incubated for 24 hours at 37° C. Subsequently the zones of inhibition were measured, in millimeters (mm) using calipers. Each test was run in triplicate.
Assay [2] relates to S. aureus. To be noted: for S. Aureus Avg. ZOI, HCl Alone: Table 8.
Protocol: as §1, §2
The subject of assay [3] is S. aureus and P. aeruginosa.
Description: One centimeter long catheter segments were cut from Multi-lumen Central Venous Catheters (CVC) from Rifampin and Minocycline impregnated CVCs (Rif/Mino). Cultures of S. aureus and P. aeruginosa were started in Muller Hinton Broth. For each organism, concentration of the inoculum was adjusted to 1×10^8 CFU/ml using 0.5 McFarland standard. […] Plates were sneaked with a single organism using a sterile cotton applicator that was dipped into the broth culture. Using sterile forceps, 1 cm long catheter segments from the control and Rif/Mino catheters were vertically inserted into the agar. Plates were then incubated for 24 hours at 37° C. Each test was run in triplicate. Subsequently the zones of inhibition (ZOI) were measured, in millimeters (mm) using calipers and the three ZOI measurements for each test were averaged.
Assay [4] deals with S. aureus and P. aeruginosa. Particulars: HCl Conc. 0.001 M, Table 7.
Protocol: as §1, §2

On to `O=c1[nH]cc(F)c(=O)[nH]1` [5-FU, 5-Fluorouracil], for which the entries for the “E. aerogenes Avg. ZOI” value in assay [1] (HCl Conc. 0 M) and in assay [1] (HCl Conc. 0.01 M) were 16.15 mm and 18.95 mm, respectively. Moreover, the “effect of HCl on inhibition” value in assay [1] (HCl concentration of 0.01 M) is listed as “enhanced inhibition”. The “S. Aureus Avg. ZOI” value in assay [2] (5-FU 8 ppm, HCl Conc. 0 M) is on record as 0.0 mm; in assay [2] (5-FU 8 ppm, HCl Conc. 0.001 M) it was 0.0 mm; in assay [2] (5-FU 8 ppm, HCl Conc. 0.01 M), 13.8 mm; in assay [2] (5-FU 16 ppm, HCl Conc. 0 M), 10.0 mm; in assay [2] (5-FU 16 ppm, HCl Conc. 0.001 M) it was 11.5 mm; in assay [2] (5-FU 16 ppm, HCl Conc. 0.01 M), 21.4 mm.
As for `Cl` [HCl, hydrochloric acid], in assay [1] (HCl Conc. 0.01 M, Table 9), the “E. aerogenes Avg. ZOI, HCl Alone” value is recorded as 0 mm. The “Avg. ZOI HCl Alone” value in assay [3] (HCl Conc. 0.001 M, Table 6) amounted to 0 mm; in assay [4], 0 mm. Also, the “highest HCl concentration that allowed formation of a confluent lawn of organisms” value in assay [3] (Muller Hinton Agar plates) amounted to 0.01 M. The “S. Aureus Avg. ZOI, HCl Alone” value in assay [2] (HCl Conc. 0.001 M) and in assay [2] (HCl Conc. 0.01 M) was 0 mm throughout.
